How the values were obtained:
mouse models = settings: intraperitoneal; cited from earlier work
MIR205 = assay: Upregulation of gene expression and/or activity, 1% naringenin: MIR205
Source text: (§1) In certain embodiments, administration of a composition comprising naringenin leads to up-regulation of LCE5A, KRT77, ALOXE3, KRT1, HPGD, MUCL1, CASP14, WFDC12, KRT10, DNASE1L2, IL37, SERPINB12, HAL, UPK1A, CALML5, LCE2B, and/or MIR205. In certain embodiments, administration of a composition comprising naringenin leads to down-regulation of CCL11, CSF2, IL23A, IL11, BMP6, IL13RA2, C2CD4A, NR4A2, C2CD4B, FGF2, FARP4, GDF15, THBS1, HSPA1A, PTGS2, and/or DKK1. Tables 10 and 11 provide data for upregulation and downregulation respectively of certain genes after administration of compositions comprising 1% naringenin.
MicroRNA 205 (MIR205) plays a role in clearance of damaged cells. In certain embodiments, administration of compositions comprising naringenin leads to upregulation of MIR205, which leads to increase clearance of damaged cells. This increase in clearance of damaged cells leads to enhancement in cell turnover and/or recycling, which results in an improvement in anti-aging effect. […] In certain embodiments, the administration of composition comprising naringenin results in at least about 2 to about 10-fold upregulation of expression and/or activity of MIR205. In certain embodiments, the administration of composition comprising naringenin results in at least about five (5) fold upregulation of expression and/or activity of MIR205.

C2CD4B = assay: Downregulation of gene expression and/or activity, 1% naringenin: C2CD4B
Source text: as §1
(§2) C2 calcium dependent domain containing 4B (C2CD4B) plays a role in the inflammatory response. In certain embodiments, downregulation of C2CD4B results in reduction in inflammation. In certain embodiments, the administration of composition comprising naringenin results in at least about 5 to about 15-fold downregulation of expression and/or activity of C2CD4B. In certain embodiments, the administration of composition comprising naringenin results in at least about ten (10) fold downregulation of expression and/or activity of C2CD4B.

[1] = cited from earlier work
GDF15 = assay: Downregulation of gene expression and/or activity, 1% naringenin: GDF15
Source text: as §1
as §2, with “Growth differentiation factor 15 (GDF15)” for “C2 calcium dependent domain containing 4B (C2CD4B)”, “GDF15” for “C2CD4B”, “2” for “5”, “10-fold” for “15-fold”, “GDF15.” for “C2CD4B.”, “five (5)” for “ten (10)”

DNASE1L2 = assay: Upregulation of gene expression and/or activity, 1% naringenin: DNASE1L2
Source text: as §1
Deoxyribonuclease-1-like 2 (DNASE1L2) plays a role in recycling of dying cells. Hair, nails, and the cornified layer of the epidermis, i.e. the stratum corneum, consist of cornified keratinocytes, also known as corneocytes. The process of cornification involves the cross-linking of structural proteins and leads to the high mechanical stability of corneocytes which, along with the formation of stable desmosomal links between cells, is essential for the resistance of epidermal structures to stress from the environment DNASE1L2 is a keratinocyte-specific DNase. DNASE1L2 breakdown of the nucleus in skin appendages and distinct epithelia whereas cornification of the interfollicular epidermis. […]

IL37 = assay: Upregulation of gene expression and/or activity, 1% naringenin: IL37
Source text: as §1

LCE5A = assay: Upregulation of gene expression and/or activity, 1% naringenin: LCE5A
Source text: as §1
Late cornified envelope protein 5A (LCE5A) is involved in formation of outer skin protective barrier. LCE5A may also be involved in keratinization. In certain embodiments, upregulation of expression and/or activity of LCE5A results in improved formation of the outer skin protective barrier. Thus, administration of compositions comprising naringenin, which leads to upregulation of LCE5A, results in increased skin barrier strength. In certain embodiments, the administration of composition comprising naringenin results in at least about 20 to about 50-fold upregulation of expression and/or activity of LCE5A. […]

KRT1 = assay: Upregulation of gene expression and/or activity, 1% naringenin: KRT1
Source text: as §1
Keratin 1 (KRT1) plays a role in maintaining the skin strength and resiliency. Keratin 1 is produced in keratinocytes in the outer layer of the skin (the epidermis), including the skin on the palms of the hands and soles of the feet. The keratin 1 protein partners with another keratin protein, either keratin 9 or keratin 10, to form molecules called keratin intermediate filaments. These filaments assemble into strong networks that provide strength and resiliency to the skin and protect it from being damaged by friction and other everyday physical stresses. In certain embodiments, the administration of composition comprising naringenin results in upregulation of KRT1, which has a role in enhancing the strength and resiliency of the skin. […]

THBS1 = assay: Downregulation of gene expression and/or activity, 1% naringenin: THBS1; settings: negative = downregulation
Source text: as §1

## O=C1C[C@@H](c2ccc(O)cc2)Oc2cc(O)cc(O)c21 [naringenin, (2S)-5,7-Dihydroxy-2-(4-hydroxyphenyl)-2,3-dihydro-4H-1-benzopyran-4-one]
Mouse models
  Cytokine production: lowers cytokine production
  Edema: effectively inhibits edema
  Symptoms associated with atopic dermatitis: lowers symptoms associated with atopic dermatitis
  UVB-induced skin damage: inhibits UVB-induced skin damage
MIR205
  Fold-increase in expression and/or activity of MIR205: ~6 fold
C2CD4B
  fold downregulation in expression and/or activity of C2CD4B: ~8 fold
C2CD4B; negative = downregulation
  Fold-increase (downregulation table) C2CD4B: −8 fold
[1]
  Safety on oral ingestion: generally considered safe for oral ingestion
GDF15
  fold downregulation in expression and/or activity of GDF15: ~6 fold
GDF15; negative = downregulation
  Fold-increase (downregulation table) GDF15: −6 fold
DNASE1L2
  Fold-increase in expression and/or activity of DNASE1L2: ~9 fold
IL37
  Fold-increase in expression and/or activity of IL37: 11 fold
LCE5A
  Fold-increase in expression and/or activity of LCE5A: ~33 fold
KRT1
  Fold-increase in expression and/or activity of KRT1: ~7 fold
THBS1
  Fold-increase (downregulation table) THBS1: −6 fold
